# Laboratory results reported in PMC6559944 (Journal of medicinal chemistry, 2019).
# “Also recorded” adds a separate entry of the source. Where two headings read alike, the source gives them in different places.
# Key:
# [1] = mouse, in vivo, 25 mg/kg; for Half Life: po
# [2] = mice, 25 mg/kg PO, feces collected 24 h
# [3] = system: Nluc-expressing C. parvum; conditions: for Efficacy (reduction in oocyst shedding / infection), in words: oral, 5 days, doses of Table 3
# [4] = system: human ether-á-go-go related gene (hERG); conditions: cited from earlier work
# [5] = mouse, in vivo
# [6] = rat
# [7] = mouse, in vivo; remark: listed apart in the source
# [8] = IFN-γ KO mice, 60 mg/kg QD for 5 days
compound,measurement,setting,value
5-amino-3-(2-cyclopropoxyquinolin-6-yl)-1-(4-hydroxybutan-2-yl)-1H-pyrazole-4-carboxamide [Compound 10],Oral Clearance,[1],0.1 mL/min
same,Half Life,[1],122.8 min
same,Fecal concentration from 25 mg/kg dose,[2],4.5 µM
5-amino-3-(7-cyclopropoxyquinolin-3-yl)-1-(4-hydroxybutan-2-yl)-1H-pyrazole-4-carboxamide [Compound 11],Oral Clearance,[1],0.7 mL/min
same,Half Life,[1],85.1 min
same,"Efficacy (reduction in oocyst shedding / infection), in words",[3]; IFN-γ KO mice,significant reduction in oocyst shedding
CCOc1ccc2cc(-c3nn(CC4CCN(C)CC4)c4ncnc(N)c34)ccc2c1 [BKI 1294],hERG activity in vitro,[4],has shown activity against the human ether-á-go-go related gene (hERG) in vitro
CCOc1ccc2cc(-c3nn(C(C)(C)C)c(N)c3C(N)=O)cnc2c1 [BKI 1517],hERG inhibition signal in vitro,[4],did not have significant in vitro hERG inhibition signal
"CCOc1ccc2cc(-c3nn(CC(C)(C)CO)c(N)c3C(N)=O)ccc2c1 [Compound 3, 5-amino-3-(6-ethoxynaphthalen-2-yl)-1-(3-hydroxy-2,2-dimethylpropyl)-1H-pyraz-+ole-4-carboxamide]",Fecal concentration from 25 mg/kg dose,[2],7.6 µM
same,"Efficacy (reduction in oocyst shedding / infection), in words",[3]; IFN-γ KO mice,"failed to reduce infection; also recorded: Failed efficacy, low c-Src IC50"
"CCOc1ccc2cc(-c3nn(C(C)CCO)c(N)c3C(N)=O)cnc2c1 (centres unmarked) [Compound 7, 5-amino-3-(7-ethoxyquinolin-3-yl)-1-(4-hydroxybutan-2-yl)-1H-pyrazole-4-carboxamide]",Fecal concentration from 25 mg/kg dose,[2],1.1 µM
same,"Efficacy (reduction in oocyst shedding / infection), in words",[3]; IFN-γ KO mice,significant reduction in oocyst shedding
"CCOc1ccc2cc(-c3nn(C(C)CCO)c(N)c3C(N)=O)ccc2c1 (centres unmarked) [Compound 9, 5-amino-3-(6-ethoxynaphthalen-2-yl)-1-(4-hydroxybutan-2-yl)-1H-pyrazole-4-carboxamide]",Efficacy in words,"[3]; IFN-γ KO mice, 30 mg/kg BID for 5 days",remain a full log above the LLOD
same,Efficacy in words,[3]; [8],efficacious
same,"Efficacy (reduction in oocyst shedding / infection), in words",[3]; IFN-γ KO mice,significant reduction in oocyst shedding
"CC(CCO)n1nc(-c2ccc3cc(OC4CC4)ccc3c2)c(C(N)=O)c1N (centres unmarked) [Compound 12, 5-amino-3-(6-cyclopropoxynaphthalen-2-yl)-1-(4-hydroxybutan-2-yl)-1H-pyrazole-4-carboxamide]",Fecal concentration from 25 mg/kg dose,[2],10.3 µM
same,Liabilities: toxicity during efficacy study,[3]; IFN-γ KO mice efficacy study,Signs of toxicity during efficacy
"CCOc1ccc2cc(-c3nn(C(C)(C)CCO)c(N)c3C(N)=O)ccc2c1 [Compound 15, 5-amino-3-(6-ethoxynaphthalen-2-yl)-1-(4-hydroxy-2-methylbutan-2-yl)-1H-pyrazole-4-carboxamide]",Efficacy in words,"[3]; IFN-γ KO mice, 5 mg/kg BID for 5 days",failed to provide an efficacious result
same,Efficacy in words,"[3]; IFN-γ KO mice, 15 mg/kg BID for 5 days",failed to provide an efficacious result
same,Efficacy in words,"[3]; IFN-γ KO mice, 30 mg/kg BID for 5 days, 30 mg/kg",efficacious; also recorded: reductions to below the LLOD
same,Log reduction (to below the LLOD),"[3]; IFN-γ KO mice, 60 mg/kg BID for 5 days",4 log
same,Efficacy in words,[3]; [8],failed to provide an efficacious result
same,Efficacy in words,"[3]; IFN-γ KO mice, 120 mg/kg QD for 5 days",reductions to below the LLOD
same,"Efficacy (reduction in oocyst shedding / infection), in words",[3]; IFN-γ KO mice,significant reduction in oocyst shedding
same,CBC and serum chemistry results,[5],within the normal range
same,Histological analysis of all major organs,[5],no abnormalities
same,Observable signs of toxicity,[5]; 150 mg/kg,Neither dose concentration showed any observable signs of toxicity
same,Toxicity to human cell lines,human cell lines,not toxic to a variety of human cell lines
"CCOc1ccc2cc(-c3nn(C(C)(C)CO)c(N)c3C(N)=O)cnc2c1 [Compound 19, 5-amino-3-(7-ethoxyquinolin-3-yl)-1-(1-hydroxy-2-methylpropan-2-yl)-1H-pyrazole-4-carboxamide]",Fecal concentration from 25 mg/kg dose,[2],2.9 µM
"CCOc1ccc2cc(-c3nn(C(C)(C)CO)c(N)c3C(N)=O)ccc2n1 [Compound 20, 5-amino-3-(2-ethoxyquinolin-6-yl)-1-(1-hydroxy-2-methylpropan-2-yl)-1H-pyrazole-4-carboxamide]",Fecal concentration from 25 mg/kg dose,[2],0.41 µM
same,Efficacy in words,"[3]; IFN-γ KO mice, 10 mg/kg BID",failed to provide a significant reduction from initial infection levels
same,Efficacy in words,"[3]; IFN-γ KO mice, 20 mg/kg BID",failed to provide a significant reduction from initial infection levels
same,Efficacy in words,[3]; [8],efficacious to the LLOD
same,"Efficacy (reduction in oocyst shedding / infection), in words",[3]; IFN-γ KO mice,significant reduction in oocyst shedding
"CCOc1ccc2cc(-c3nn(C(C)(C)CO)c(N)c3C(N)=O)ccc2c1 [Compound 21, 5-amino-3-(6-ethoxynaphthalen-2-yl)-1-(1-hydroxy-2-methylpropan-2-yl)-1H-pyrazole-4-carboxamide]",Fecal concentration from 25 mg/kg dose,[2],7.1 µM
same,"Efficacy (reduction in oocyst shedding / infection), in words",[3]; IFN-γ KO mice,failed to reduce infection; also recorded: Failed efficacy
"CC(C)(CO)n1nc(-c2ccc3cc(OC4CC4)ccc3c2)c(C(N)=O)c1N [Compound 24, 5-amino-3-(6-cyclopropoxynaphthalen-2-yl)-1-(1-hydroxy-2-methylpropan-2-yl)-1H-pyrazole-4-carboxamide]",Fecal concentration from 25 mg/kg dose,[2],3.5 µM
same,"Efficacy (reduction in oocyst shedding / infection), in words",[3]; IFN-γ KO mice,significant reduction in oocyst shedding
same,Liabilities: in vivo cardiovascular,[6],In vivo cardiovascular liabilities (data not shown)
"CC(C)(C)n1nc(-c2ccc3cc(OC4CC4)ccc3c2)c(C(N)=O)c1N [Compound 25, 5-amino-1-(tert-butyl)-3-(6-cyclopropoxynaphthalen-2-yl)-1H-pyrazole-4-carboxamide]",Fecal concentration from 25 mg/kg dose,[2],0.42 µM
same,Efficacy in words,"[3]; IFN-γ KO mice, 15 mg/kg QD for 5 days",failed to reduce infections from their initial levels
same,Efficacy in words,"[3]; IFN-γ KO mice, 30 mg/kg QD for 5 days",reduced infection to below the LLOD
same,Efficacy in words,[3]; [8],efficacious
same,"Efficacy (reduction in oocyst shedding / infection), in words",[3]; IFN-γ KO mice,efficacious
same,CBC and serum chemistry results,[5],within the normal range
same,Histological analysis of all major organs,[5],no abnormalities
same,Observable signs of toxicity,[5]; 100 mg/kg,No signs of toxicity were observed
same,Observable signs of toxicity,[5]; 250 mg/kg,Minor signs of toxicity
same,Plasma Concentration,[7]; 100 mg/kg,19.9 ± 5.4 µM
same,Plasma Concentration,"[7]; 100 mg/kg, 2 h",49.2 ± 4.7 µM
same,Plasma Concentration,[7]; 250 mg/kg,36.1 ± 16.7 µM
"CCOc1ccc2cc(-c3nn(CC4CC4)c(N)c3C(N)=O)ccc2c1 [Compound 27, 5-amino-1-(cyclopropylmethyl)-3-(6-ethoxynaphthalen-2-yl)-1H-pyrazole-4-carboxamide]",Fecal concentration from 25 mg/kg dose,[2],54 µM
same,"Efficacy (reduction in oocyst shedding / infection), in words",[3]; IFN-γ KO mice,Failed efficacy
